Results on 3 compounds are retold here after patent publication US20160303181A1, “SYNERGISTIC COMBINATION OF ALANINE-GLUTAMINE, HYALURONIC ACID AND OAT EXTRACT AND THE USE THEREOF IN A COMPOSITION INTENDED FOR HEALING WOUNDS AND REPAIRING SKIN LESIONS” (PIERRE FABRE DERMO-COSMETIQUE, priority 2013, published 2016).

Marks after values point to notes of the source that are not given here. Residues, ends and D or L forms follow the SMILES beside them.

This experiment deals with HaCaT human keratinocyte line. In words: Migration of keratinocytes, Oris Cell Migration Assay. It counts as cell-based. The note with it: DMEM 0% FCS, 24 hours; for effect on the migration of keratinocytes (in words): oat seedling extract 10 or 30 μg/ml, hyaluronate 20 or 60 μg/ml, L-alanyl-L-glutamine 40 or 90 μg/ml, EGF 33 ng/ml; for % Migration (percentage activity compared to the control 0% FCS): control = 100. The source says:
The objective of this test was to evaluate the effect of hyaluronic acid, oat seedling extract, L-alanyl-L-glutamine and combinations thereof on the migration of keratinocytes using the Oris Cell Migration Assay kit (Platypus Technologies).
The spontaneously immortalised HaCaT human keratinocyte line, frequently cited as reference model in the literature was used.
The protocol used for the study of cell migration is based on the use of a 96 well kit, the Oris Cell Migration Assay (Platypus technologies—TEBU), enabling the miniaturisation and the quantification of this cellular process.
The principle of this test consists in studying cell migration towards the centre of the wells of the 96 well plate. It consists in placing a stopper in the wells, in order to create a 2 mm diameter detection zone. Then removing the stoppers once cells have properly adhered to the surface around them, and thus to enable cells to migrate towards the detection zone. The plates without stoppers and with the active ingredients are incubated at 37° C. for 24 hours in DMEM (Dulbecco's Modified Eagle Medium) 0% FCS (foetal calf serum). The quantity of cells situated in the zone where the stopper was is analysed in order to evaluate the migration of the cells. A mask makes it possible to visualise and to count uniquely the cells situated in this zone. For each condition, the average is determined on 6 to 8 wells.
The cells were incubated in FCS-free medium.
• EGF: 33 ng/ml, • oat seedling extract: 10 or 30 μg/ml,
Filtering. Concentration by drying until a dry extract is obtained. • sodium hyaluronate (molecular weight 250-450 kDa): 20 or 60 μg/ml, • L-alanyl-L-glutamine: 40 or 90 μg/ml.
The Results are Expressed: • In fluorescence intensity (FI), proportional to the quantity of cells having migrated. • In percentage activity compared to the control 0% FCS.
Statistical analyses by the Dunnett test were carried out on the crude migration values. This test then gives “p value” values characterising the significance of the results obtained for different conditions. The degree of significance was fixed at […]

The mark [1] stands for this setting: Table 1, lower concentrations: EGF 33 ng/ml, ES 10 μg/ml, AH 20 μg/ml, A-G 40 μg/ml, control 1850.
Where [2] appears, read: Table 1, lower concentrations: EGF 33 ng/ml, ES 10 μg/ml, AH 20 μg/ml, A-G 40 μg/ml.
[3] abbreviates: Table 2, higher concentrations: EGF 33 ng/ml, ES 30 μg/ml, AH 60 μg/ml, A-G 90 μg/ml, control 1729 ± 384.
The mark [4] stands for this setting: Table 2, higher concentrations: EGF 33 ng/ml, ES 30 μg/ml, AH 60 μg/ml, A-G 90 μg/ml.

Regarding `C[C@H](N)C(=O)N[C@@H](CCC(N)=O)C(=O)O` [A-G, L-alanyl-L-glutamine] (H-Ala-Gln-OH), the “effect on the migration of keratinocytes (in words)” value (shortened to “effect on the migration”) is “induces the migration of keratinocytes in a concentration-dependent manner”. Besides, under setting [1], the “Average ± SD (fluorescence intensity, proportional to the quantity of cells having migrated)” value (“Average ± SD” for short) stood at 2471 ± 788. Besides, the “% Migration (percentage activity compared to the control 0% FCS)” value under setting [2] is recorded as 200%. Further, the “Average ± SD” value under setting [3] turned out to be 2586 ± 1092. Moreover, the “% Migration (percentage activity compared to the control 0% FCS)” value under setting [4] came out at 194%.
For the compound “EGF: positive control of the migration experiments, 33 ng/ml”, the “effect on the migration” value is given as “induces the migration of keratinocytes”. Also, under setting [1], the “Average ± SD” value was 2569±. In addition, under setting [2], the “% Migration (percentage activity compared to the control 0% FCS)” value is recorded as 216%. Moreover, under setting [3], the “Average ± SD” value was 3553 ± 1556. The “% Migration (percentage activity compared to the control 0% FCS)” value under setting [4] is on record as 301 * %.
For sodium hyaluronate [AH], the “effect on the migration” value is reported as “did not have any significant effect on the migration of keratinocytes”. Moreover, the “Average ± SD” value under setting [1] is 1939 ± 438. Besides, the “% Migration (percentage activity compared to the control 0% FCS)” value under setting [2] came out at 114%. For the same compound, under setting [3], the “Average ± SD” value is 1735 ± 488. Besides, the “% Migration (percentage activity compared to the control 0% FCS)” value under setting [4] was 101%.
